ChEMBL document CHEMBL4699655, “Optimization of the In Vivo Potency of Pyrazolopyrimidine MALT1 Protease Inhibitors by Reducing Metabolism and Increasing Potency in Whole Blood” (J Med Chem, 2020)
In brackets after ≈: the same amount, converted by molar mass. Activity calls are given as the source filed them. No cut-off for these calls is given here.

Tests used:
OCI-Ly3 [1] = test: Growth inhibition of human OCILY3 cells grown in soft agar at 19.5 to 10000 nM; type: functional, cell-based; conditions: dose nM 19.5-10000
Procathepsin L = Procathepsin L (Homo sapiens, UniProt P07711); test: Inhibition of cathepsin L (unknown origin)
[2] = Lipophilicity, logP of the compound; conditions: octanol/water
Cathepsin S = Cathepsin S (Homo sapiens, UniProt P25774); test: Inhibition of cathepsin S (unknown origin)
Caspase-3 = molecular target: T1, Caspase-3 (Homo sapiens, UniProt P42574); test: Inhibition of caspase-3 (unknown origin)
T1 sequence (P42574 whole entry): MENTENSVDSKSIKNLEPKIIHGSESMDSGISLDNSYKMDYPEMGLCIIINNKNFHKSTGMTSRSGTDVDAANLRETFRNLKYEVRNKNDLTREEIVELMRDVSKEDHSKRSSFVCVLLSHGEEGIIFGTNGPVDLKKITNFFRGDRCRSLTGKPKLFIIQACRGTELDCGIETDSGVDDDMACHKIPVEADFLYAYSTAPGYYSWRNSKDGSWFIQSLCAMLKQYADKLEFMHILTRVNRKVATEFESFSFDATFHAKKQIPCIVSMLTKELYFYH

Rattus norvegicus [3] = test: Anti-autoimmune disease activity in OFA rat model of T-cell dependent B cell response assessed as reduction in SRBC-induced IgM producing B cells at 0.3 mg/kg, po QD for 4 days starting 2 days prior to immunization by ex vivo plaque forming assay relative to control; type: functional; conditions: 96 h, read-out: INH, time 4 day
Cathepsin B = Cathepsin B (Homo sapiens, UniProt P07858); test: Inhibition of cathepsin B (unknown origin)
[4] = AUC (0 to 24 hrs) in Balb/C mouse at 3 mg/kg, po; type: ADME, organism-based; set-up: time < 24 hr, route oral, dose 3 mg/kg; conditions: in vivo
[5] = Clearance in Balb/C mouse at 1 mg/kg, iv; type: ADME, organism-based; conditions: in vivo
[6] = Intrinsic clearance in rat liver microsomes; type: ADME, Microsome; conditions: read-out: CLH
[7] = Oral bioavailability in Balb/C mouse at 3 mg/kg; type: ADME, organism-based; conditions: in vivo
Rattus norvegicus [8] = test: Anti-autoimmune disease activity in OFA rat model of T-cell dependent B cell response assessed as reduction in SRBC-induced IgM producing B cells dosed orally once daily for 4 days starting 2 days prior to immunization by ex vivo plaque forming assay relative to control; type: functional
Cytochrome P450 3A4 = Cytochrome P450 3A4 (Homo sapiens, UniProt P08684); test: Inhibition of CYP3A4 (unknown origin)
BJAB [9] = test: Growth inhibition of human BJAB cells grown in soft agar at 19.5 to 10000 nM; type: functional, cell-based; conditions: dose nM 19.5-10000
[10] = Cmax in Sprague-Dawley rat at 3 mg/kg, po; type: ADME, organism-based; set-up: route oral, dose 3 mg/kg; conditions: in vivo
[11] = Terminal half life in Sprague-Dawley rat at 1 mg/kg, iv; type: ADME, organism-based; conditions: in vivo, read-out: beta t1/2 (converted)
[12] = Thermodynamic solubility of the compound
Cytochrome P450 2D6 = Cytochrome P450 2D6 (Homo sapiens, UniProt P10635); test: Inhibition of CYP2D6 (unknown origin)
[13] = Toxicity in SCID-bg mouse xenografted with human OCILY3 cells assessed as effect on body weight at 30 mg/kg, po QD for 49 days; type: organism-based; conditions: in vivo, 1176 h, time 49 day
[14] = Apparent volume of distribution at steady state in Sprague-Dawley rat at 1 mg/kg, iv; type: ADME, organism-based; conditions: in vivo, read-out: Vdss(app)
BJAB [15] = test: Growth inhibition of human BJAB cells grown in soft agar
[16] = Cmax in blood of OFA rat model of T-cell dependent B cell response at 1 mg/kg, po QD for 4 days starting 2 days prior to immunization and measured after 3 hrs; type: ADME, organism-based; set-up: route oral, dose 1 mg/kg, time 4 day
[17] = Cmax in blood of OFA rat model of T-cell dependent B cell response at 3 mg/kg, po QD for 4 days starting 2 days prior to immunization and measured after 3 hrs; type: ADME, organism-based; set-up: route oral, dose 3 mg/kg, time 4 day
OCI-Ly3 [18] = test: Antitumor activity against human OCILY3 cells xenografted in SCID-bg mouse assessed as inhibition of tumor growth by measuring T/C ratio at 30 mg/kg, po QD for 53 days; type: functional, organism-based; conditions: time 53.0 day
[19] = Cmax in blood of OFA rat model of T-cell dependent B cell response at 0.3 mg/kg, po QD for 4 days starting 2 days prior to immunization and measured after 24 hrs; type: ADME, organism-based; set-up: route oral, dose 0.3 mg/kg, time 5 day
[20] = Protein binding in human plasma; type: ADME, cell-free; conditions: read-out: PPB (converted)
OCI-Ly3 [21] = test: Inhibition of ROS production in human OCILY3 cells
[22] = Cmax in Balb/C mouse at 3 mg/kg, po; type: ADME, organism-based; set-up: route oral, dose 3 mg/kg; conditions: in vivo
OCI-Ly3 [23] = test: Antitumor activity against human OCILY3 cells xenografted in SCID-bg mouse assessed as tumor regression level at 30 mg/kg, po BID for 53 days; type: functional; conditions: time 53 day
[24] = molecular target: Voltage-gated inwardly rectifying potassium channel KCNH2 (Homo sapiens, UniProt Q12809); test: Inhibition of human ERG by dofetilide binding assay
OCI-Ly3 [25] = test: Antitumor activity against human OCILY3 cells xenografted in SCID-bg mouse assessed as inhibition of tumor growth by measuring T/C ratio at 30 mg/kg, po QD for 49 days; type: functional; conditions: time 49 day
[26] = Terminal half life in Balb/C mouse at 1 mg/kg, iv; type: ADME, organism-based; conditions: in vivo, read-out: beta t1/2 (converted)
[27] = Clearance in Sprague-Dawley rat at 1 mg/kg, iv; type: ADME, organism-based; conditions: in vivo
Rattus norvegicus [28] = test: Anti-autoimmune disease activity in OFA rat model of T-cell dependent B cell response assessed as reduction in SRBC-induced IgM producing B cells at 3 mg/kg, po QD for 4 days starting 2 days prior to immunization by ex vivo plaque forming assay relative to control; type: functional; conditions: 96 h, read-out: INH, time 4 day
Cytochrome P450 2C9 = Cytochrome P450 2C9 (Homo sapiens, UniProt P11712); test: Inhibition of CYP2C9 (unknown origin)
[29] = AUC (0 to 24 hrs) in Sprague-Dawley rat at 3 mg/kg, po; type: ADME, organism-based; set-up: time < 24 hr, route oral, dose 3 mg/kg; conditions: in vivo
OCI-Ly3 [30] = test: Antitumor activity against human OCILY3 cells xenografted in SCID-bg mouse assessed as tumor regression level at 30 mg/kg, po BID for 49 days; type: functional; conditions: time 49 day
[31] = Protein binding in rat plasma; type: ADME, cell-free; conditions: read-out: PPB (converted)
Cathepsin K = molecular target: T2, Cathepsin K (Homo sapiens, UniProt P43235); test: Inhibition of cathepsin K (unknown origin)
T2 sequence (P43235 whole entry): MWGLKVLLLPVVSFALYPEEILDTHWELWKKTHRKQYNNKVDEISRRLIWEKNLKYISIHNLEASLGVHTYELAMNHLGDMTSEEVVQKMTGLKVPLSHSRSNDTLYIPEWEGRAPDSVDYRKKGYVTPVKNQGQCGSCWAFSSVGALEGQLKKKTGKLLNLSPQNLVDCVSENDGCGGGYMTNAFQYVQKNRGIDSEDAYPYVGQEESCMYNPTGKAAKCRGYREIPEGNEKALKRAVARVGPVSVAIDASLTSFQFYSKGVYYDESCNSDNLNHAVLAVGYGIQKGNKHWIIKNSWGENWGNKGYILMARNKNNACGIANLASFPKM

OCI-Ly3 [32] = test: Growth inhibition of human OCILY3 cells grown in soft agar
TMD8 = test: Inhibition of IL-10 production in tumor of CD79B-mutant containing human TMD8 cells xenografted in SCID-bg mouse at 30 mg/kg, po administered as single dose; type: functional, organism-based
[33] = Cmax in blood of OFA rat model of T-cell dependent B cell response at 0.3 mg/kg, po QD for 4 days starting 2 days prior to immunization and measured after 3 hrs; type: ADME, organism-based; set-up: route oral, time 4 day, dose 0.3 mg/kg
[34] = Cmax in blood of OFA rat model of T-cell dependent B cell response at 3 mg/kg, po QD for 4 days starting 2 days prior to immunization and measured after 24 hrs; type: ADME, organism-based; set-up: route oral, dose 3 mg/kg, time 5 day
[35] = Oral bioavailability in Sprague-Dawley rat at 3 mg/kg; type: ADME, organism-based; conditions: in vivo
[36] = Cmax in blood of OFA rat model of T-cell dependent B cell response at 1 mg/kg, po QD for 4 days starting 2 days prior to immunization and measured after 24 hrs; type: ADME, organism-based; set-up: route oral, dose 1 mg/kg, time 5 day
[37] = Apparent volume of distribution at steady state in Balb/C mouse at 1 mg/kg, iv; type: ADME, organism-based; conditions: in vivo, read-out: Vdss(app)
[38] = Intrinsic clearance in mouse liver microsomes; type: ADME, Microsome; conditions: read-out: CLH
[39] = Toxicity in SCID-bg mouse xenografted with human OCILY3 cells assessed as effect on body weight at 30 mg/kg, po BID for 49 days; type: organism-based; conditions: in vivo, 1176 h, time 49 day
[40] = Intrinsic clearance in human liver microsomes; type: ADME, Microsome; conditions: read-out: CLH
[41] = Apparent permeability from apical to basolateral side in human Caco-2 cells
Dipeptidyl peptidase 1 = Dipeptidyl peptidase 1 (Homo sapiens, UniProt P53634); test: Inhibition of cathepsin C (unknown origin)
Chain of Dipeptidyl peptidase 1 (P53634 25-134 limits assumed): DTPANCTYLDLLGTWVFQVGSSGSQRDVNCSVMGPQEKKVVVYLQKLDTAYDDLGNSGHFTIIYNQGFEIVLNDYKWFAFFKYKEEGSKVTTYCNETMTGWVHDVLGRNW
Chain of Dipeptidyl peptidase 1 (P53634 231-394 limits assumed): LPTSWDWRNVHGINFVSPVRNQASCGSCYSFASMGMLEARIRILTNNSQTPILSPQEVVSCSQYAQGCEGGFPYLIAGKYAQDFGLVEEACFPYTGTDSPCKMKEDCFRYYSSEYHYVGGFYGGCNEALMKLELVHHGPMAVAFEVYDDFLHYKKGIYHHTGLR
Chain of Dipeptidyl peptidase 1 (P53634 395-463 limits assumed): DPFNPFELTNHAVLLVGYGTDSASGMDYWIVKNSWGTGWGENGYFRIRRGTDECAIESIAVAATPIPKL

Chain of Voltage-gated inwardly rectifying potassium channel KCNH2 (Q12809 whole entry): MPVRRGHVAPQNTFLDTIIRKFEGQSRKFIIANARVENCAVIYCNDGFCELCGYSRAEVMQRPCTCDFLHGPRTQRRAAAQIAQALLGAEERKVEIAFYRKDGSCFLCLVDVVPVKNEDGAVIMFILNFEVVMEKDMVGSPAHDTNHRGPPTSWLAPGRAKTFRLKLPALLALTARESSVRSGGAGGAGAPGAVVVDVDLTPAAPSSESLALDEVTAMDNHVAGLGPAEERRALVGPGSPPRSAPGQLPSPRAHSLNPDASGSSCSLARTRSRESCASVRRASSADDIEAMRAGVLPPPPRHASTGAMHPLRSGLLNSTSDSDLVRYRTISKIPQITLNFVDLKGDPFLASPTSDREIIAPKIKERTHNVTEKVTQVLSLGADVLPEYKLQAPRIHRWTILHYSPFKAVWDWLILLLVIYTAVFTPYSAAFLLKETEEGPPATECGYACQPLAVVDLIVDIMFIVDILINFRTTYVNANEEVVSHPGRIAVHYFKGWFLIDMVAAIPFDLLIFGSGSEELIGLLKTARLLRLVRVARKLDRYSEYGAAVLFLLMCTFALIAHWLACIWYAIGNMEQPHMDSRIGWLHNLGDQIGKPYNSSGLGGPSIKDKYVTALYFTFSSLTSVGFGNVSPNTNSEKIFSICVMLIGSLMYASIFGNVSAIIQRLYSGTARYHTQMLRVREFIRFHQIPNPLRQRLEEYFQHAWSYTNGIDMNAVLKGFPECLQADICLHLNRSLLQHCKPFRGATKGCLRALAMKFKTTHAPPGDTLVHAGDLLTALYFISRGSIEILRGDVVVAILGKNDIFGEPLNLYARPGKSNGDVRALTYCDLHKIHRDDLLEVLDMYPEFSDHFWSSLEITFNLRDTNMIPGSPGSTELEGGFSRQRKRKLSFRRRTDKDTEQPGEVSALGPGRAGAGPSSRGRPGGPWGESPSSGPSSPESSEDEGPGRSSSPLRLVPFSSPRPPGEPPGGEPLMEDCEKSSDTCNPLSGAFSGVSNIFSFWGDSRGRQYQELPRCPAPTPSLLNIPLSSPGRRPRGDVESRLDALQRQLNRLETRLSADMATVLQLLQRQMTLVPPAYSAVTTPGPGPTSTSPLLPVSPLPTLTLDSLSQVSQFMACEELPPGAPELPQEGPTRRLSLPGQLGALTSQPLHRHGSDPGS
Chain of Cytochrome P450 2D6 (P10635 whole entry): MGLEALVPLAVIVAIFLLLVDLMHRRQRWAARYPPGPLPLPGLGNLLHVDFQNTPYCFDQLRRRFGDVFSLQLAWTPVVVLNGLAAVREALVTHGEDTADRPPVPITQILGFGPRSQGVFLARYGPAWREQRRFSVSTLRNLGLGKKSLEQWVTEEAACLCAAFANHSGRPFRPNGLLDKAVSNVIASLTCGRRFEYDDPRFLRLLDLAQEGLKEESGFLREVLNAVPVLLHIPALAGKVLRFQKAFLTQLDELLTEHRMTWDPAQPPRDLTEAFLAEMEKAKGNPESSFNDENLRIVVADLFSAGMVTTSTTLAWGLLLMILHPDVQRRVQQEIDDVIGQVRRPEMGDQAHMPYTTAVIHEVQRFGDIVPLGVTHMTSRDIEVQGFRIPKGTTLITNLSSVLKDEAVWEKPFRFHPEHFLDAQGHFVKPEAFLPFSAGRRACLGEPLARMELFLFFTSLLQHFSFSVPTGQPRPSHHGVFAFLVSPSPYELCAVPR
Chain of Cytochrome P450 2C9 (P11712 whole entry): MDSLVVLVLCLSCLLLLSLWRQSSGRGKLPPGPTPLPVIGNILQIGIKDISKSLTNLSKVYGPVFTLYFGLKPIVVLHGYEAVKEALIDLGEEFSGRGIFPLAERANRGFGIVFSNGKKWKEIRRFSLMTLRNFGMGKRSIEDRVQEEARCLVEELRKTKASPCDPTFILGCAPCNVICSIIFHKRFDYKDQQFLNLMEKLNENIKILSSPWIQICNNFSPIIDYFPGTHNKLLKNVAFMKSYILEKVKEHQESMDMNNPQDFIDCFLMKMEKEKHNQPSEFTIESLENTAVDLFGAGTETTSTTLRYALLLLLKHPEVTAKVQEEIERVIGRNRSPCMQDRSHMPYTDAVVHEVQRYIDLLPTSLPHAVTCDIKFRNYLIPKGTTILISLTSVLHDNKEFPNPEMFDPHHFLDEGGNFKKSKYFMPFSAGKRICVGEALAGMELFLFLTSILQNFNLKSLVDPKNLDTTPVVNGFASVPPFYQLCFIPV
Chain of Cathepsin S (P25774 whole entry): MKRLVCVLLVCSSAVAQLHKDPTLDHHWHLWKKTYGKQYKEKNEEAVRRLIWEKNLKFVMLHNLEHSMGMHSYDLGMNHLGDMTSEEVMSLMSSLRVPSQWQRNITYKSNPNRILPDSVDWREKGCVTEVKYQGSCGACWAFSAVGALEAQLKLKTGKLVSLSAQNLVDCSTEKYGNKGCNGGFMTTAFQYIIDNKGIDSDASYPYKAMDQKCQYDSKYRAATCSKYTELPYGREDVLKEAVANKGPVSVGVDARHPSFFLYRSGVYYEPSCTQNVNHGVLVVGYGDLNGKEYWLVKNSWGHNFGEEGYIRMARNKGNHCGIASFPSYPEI
Chain of Cytochrome P450 3A4 (P08684 whole entry): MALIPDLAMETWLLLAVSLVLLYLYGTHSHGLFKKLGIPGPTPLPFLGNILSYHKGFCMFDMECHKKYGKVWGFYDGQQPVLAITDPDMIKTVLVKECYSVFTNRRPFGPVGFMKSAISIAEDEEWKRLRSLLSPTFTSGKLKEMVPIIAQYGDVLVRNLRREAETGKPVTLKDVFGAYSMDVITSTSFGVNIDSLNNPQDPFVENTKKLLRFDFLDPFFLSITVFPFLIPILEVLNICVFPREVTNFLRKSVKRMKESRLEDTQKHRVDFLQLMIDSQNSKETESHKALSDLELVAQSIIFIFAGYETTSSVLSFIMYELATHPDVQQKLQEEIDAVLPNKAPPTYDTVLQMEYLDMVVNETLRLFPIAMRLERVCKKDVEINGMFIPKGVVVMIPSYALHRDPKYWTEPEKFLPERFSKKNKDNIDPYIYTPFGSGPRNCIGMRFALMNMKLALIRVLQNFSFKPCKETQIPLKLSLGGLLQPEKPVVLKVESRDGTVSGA
Chain of Procathepsin L (P07711 whole entry): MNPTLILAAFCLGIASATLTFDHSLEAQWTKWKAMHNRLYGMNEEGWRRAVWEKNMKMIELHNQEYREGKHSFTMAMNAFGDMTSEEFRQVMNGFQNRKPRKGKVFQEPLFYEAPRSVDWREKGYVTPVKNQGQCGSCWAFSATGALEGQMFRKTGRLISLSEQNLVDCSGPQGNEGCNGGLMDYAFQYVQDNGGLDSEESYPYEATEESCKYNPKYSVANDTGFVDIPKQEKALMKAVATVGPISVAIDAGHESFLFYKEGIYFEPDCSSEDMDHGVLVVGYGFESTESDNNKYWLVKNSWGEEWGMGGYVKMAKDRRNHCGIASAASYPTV

CO[C@@H](C)c1c(NC(=O)Nc2cnc(-n3nccn3)c(Cl)c2)cnc2cc(Cl)nn12
growth inhibition (GI) (OCI-Ly3 [1]): Dose-dependent effect | IC50 (Procathepsin L): > 100 µM | logP [2]: 3.4 | IC50 (Cathepsin S): > 100 µM | IC50 (Caspase-3): > 100 µM | inhibition in vivo at 0.3 mg/kg (Rattus norvegicus [3]): 58% | IC50 (Cathepsin B): > 100 µM | AUC [4]: 20.1 µM·h | clearance [5]: 5 mL/min/kg | microsomal CLint [6]: < 25 µL/min/mg | bioavailability [7]: 83% | ED50 (Rattus norvegicus [8]; po, 96 h, time 4 day): 0.3 mg/kg | Activity (Rattus norvegicus [8]; time 4.0 day): Dose-dependent effect | IC50 (Cytochrome P450 3A4): > 20 µM | growth inhibition (GI) (BJAB [9]): inactive | Cmax [10]: 700 nM | half-life [11]: 8.5 h | solubility thermodynamic [12]: 4 µg/mL (≈ 8.92 µM) | IC50 (Cytochrome P450 2D6): > 20 µM | Activity [13]: Non-Toxic | Vd [14]: 4.2 L/kg | IC50 (BJAB [15]): > 10 µM | Cmax [16]: 670 nM | Cmax [17]: 2300 nM | Activity (OCI-Ly3 [18]): Active | Cmax [19]: 50 nM | fraction unbound [20]: 0.017 | IC50 (OCI-Ly3 [21]): 0.03 µM | Cmax [22]: 1700 nM | Activity (OCI-Ly3 [23]): -50% | IC50 [24]: > 30 µM | T/C (OCI-Ly3 [25]): 32% | half-life [26]: 3.7 h | clearance [27]: 7 mL/min/kg | inhibition in vivo at 3 mg/kg (Rattus norvegicus [28]): 97% | IC50 (Cytochrome P450 2C9): > 20 µM | AUC [29]: 13.2 µM·h | Activity (OCI-Ly3 [30]): -20% | fraction unbound [31]: 0.03 | IC50 (Cathepsin K): > 100 µM | IC50 (OCI-Ly3 [32]): 0.24 µM | inhibition (TMD8): Active | Cmax [33]: 130 nM | Cmax [34]: 1000 nM | bioavailability [35]: 79% | Cmax [36]: 260 nM | Vd [37]: 1.4 L/kg | microsomal CLint [38]: < 25 µL/min/mg | Activity [39]: Non-Toxic | microsomal CLint [40]: < 25 µL/min/mg | Papp A→B [41]: 12.8 ×10⁻⁶ cm/s | IC50 (Dipeptidyl peptidase 1): > 100 µM
